Columns and labels:
Type in all cases: in vivo, Cannabis spp.
[1] = tested on: high-CBD hemp variety Cherry; test: Low-volume drone foliar applications of MeJA or MDJ on field grown high-CBD hemp, cannabinoid and terpene analysis; conditions: about 2 gallons per acre, at harvest; for increase in the ratio of CBD:THC compared to the Control group / alpha bisabolol change compared to the Control group: 7.5 mM; for increase in the ratio of CBD:THC compared to the Control group: morning applications about every 14 days
Source text: In previous foliar application experiments, plants were sprayed until the leaves were dripping. In order to assess the plant physiological response to low-volume foliar applications of two jasmonate elicitors, methyl jasmonate (MeJA) and methyl dihydro-jasmonate (MDJ), an outdoor experiment on field grown, high-CBD hemp was designed and performed during the summer of 2019 using an unmanned aerial drone as the application device. A single high-CBD hemp variety, “Cherry” (CBDRx, Longmont, Colo.) was used in an organic field plot in Pueblo, Colo., which was subdivided into four spatially separated quadrants of approximately 0.5 acres each as determined by drone and GPS mapping. Each 0.5-acre quadrant was assigned a treatment group, and the middle area of the entire plot, approximately 1 acre in area, was used as a “control” section of the field. Plants in the Control group received sprays of water and TWEEN®-20 only, identical to the treatment groups except for the exclusion of any jasmonate (i.e., [0 mM] MeJA and MDJ) active ingredients. MeJA and MDJ were applied at approximately 2 gallons per acre. In comparison, previous foliar applications wherein the plant was sprayed until the leaves dripped would equate to between 50-100 gallons per acre.
Treatments were separated into such “morning” and “evening” applications in an attempt to determine if the time of day influenced the plant response to the treatments. The four treatment groups were as follows: TIM=[7.5 mM] MDJ foliar applications in the morning; TIE=[7.5 mM] MDJ foliar applications in the evening; T2M=[7.5 mM] MeJA foliar applications in the morning; T2E [7.5 mM] MeJA foliar applications in the evening. All treatment groups were prepared the day of the application, and all applications were made successively with the same drone device. To reduce potential cross-contamination of the drone sprayer equipment, an acetic acid solution (5%) was run through the applicator equipment between each treatment application and control spray application, followed by plain water as a final rinse.
Plants were planted and allowed to grow in the normal fashion until the onset of flowering, which occurred around Jul. 25, 2019. At that point, foliar applications of the treatment were made approximately every 14 days with adjustments to the schedule as needed to avoid applying treatments on days with high winds, rain, or other suboptimal conditions for drone flight or treatment applications. Approximately every 14 days during the flowering cycle, flower samples from three randomly selected plants in each experimental group were taken, dried, and stored for analytical testing; however, the focus of this study was to determine the effect of the treatment groups versus the control group at harvest. Final flower samples were taken from 10 randomly selected plants in each experimental group on Sep. 12, 2019, labelled accordingly, dried, and sent to a third part commercial cannabis testing lab (Pro Verde, Milford, Mass.) for chemical analysis of the cannabinoids and terpene content individually using liquid chromatography (LC) and headspace gas chromatography (HS-GC), respectively. All samples were harvested on the day of a scheduled treatment prior to treatment.
Statistical analysis of the quantitative terpene data from plant samples taken at harvest was performed using R statistical software and corrected post-hoc using Tukey HSD method. For cannabinoid data from the same plant samples, ANOVA analysis was performed in Microsoft Excel with Tukey HSD post-hoc corrections.

CBDRx Cherry variety = test: MeJA vs MDJ weekly foliar spray, terpene analysis; conditions: 4.25 mM or 7.5 mM weekly foliar spray
Description: (§1) To directly compare the efficacy of MeJA and MDJ, MeJA and MDJ were applied as a foliar spray once per week at either 4.25 mM or 7.5 mM concentrations to two high-CBD cannabis varieties. Clones from CBDRx Cherry variety and Sunrise Genetics' F2 variety were transplanted into 1-gallon pots with Red's soil and put into vegetative light cycle (18L/6D) on 4/12/21. All plants had two weeks in vegetative light cycle and were moved to flowering light cycle (12L/12D) on 4/26/21 for six weeks. Foliar applications started in week three of growth, [at flower initiation?]. Plants were then moved to a flowering light cycle. Each treatment group comprises three plants, including the control. Throughout the growing period, all plants were watered with JACK'S NUTRIENTS®. Plants were harvested on 6/7/21.
(§2) Treatments: Each concentration was prepared from a one molar stock solution with TWEEN®-20. Sprays were prepared weekly and diluted with RO water. Each plant was sprayed till dripping, each receiving approximately 75-100 ml.

[2] = tested on: Sunrise Genetics' F2 variety; test: MeJA vs MDJ weekly foliar spray, terpene analysis; conditions: for eucalyptol / guaiol / α-bisabolol: 4.25 mM or 7.5 mM MDJ, or 7.5 mM MeJA; for D-Limonene / Linalool / cis-B-ocimene: all applications (4.25 mM and 7.5 mM)
Description: as §1, §2

[3] = tested on: hemp clones cv. Cherry in the vegetative stage; test: Root drench of MeJA or MDJ, phytotoxicity; conditions: for plants deceased in 72 hours: 250 mL, n=4; for phytotoxicity to plants in the vegetative stage: root drench, concentrations above 10 mM, within 72 hours
Description: To investigate if higher concentrations of jasmonate elicitors would be tolerated in cannabis by root drench, four different concentrations, [7.5 mM], [10 mM], [15 mM] and [20 mM] were applied to hemp clones (n=4 per treatment group, cv.: Cherry, CBDRx) in the vegetative stage. Treatment concentrations were prepared from methyl dihydrojasmonate (MDJ, TCI, CAS No.: 24851-98-7) and methyl Jasmonate (MeJA, TCI, CAS No.: […]) with 1% TWEEN®-20 added (VWR, CAS No.: […]).
The roots of each clone in each treatment group were treated with 250 mL of each compound once per week. Plants were grown under a total of 12 Boost (Thrive Agritech, NY) 130-watt LED lights set to 18L: 6D photoperiod during the vegetative phase (2 weeks) or until phytotoxicity observed.

[4] = 4.25 mM or 7.5 mM weekly foliar spray

| Compound | increase in the ratio of CBD:THC compared to the Control group [1] [%] | alpha bisabolol change compared to the Control group [1] | camphene (CBDRx Cherry variety) | total terpene content (CBDRx Cherry variety) | α-pinene (CBDRx Cherry variety) | β-pinene (CBDRx Cherry variety) | eucalyptol [2] | guaiol [2] | α-bisabolol [2] | D-Limonene [2] | Linalool [2] | cis-B-ocimene [2] | plants deceased in 72 hours ([3]; root drench 15 mM) | plants deceased in 72 hours ([3]; root drench 20 mM) | phytotoxicity to plants in the vegetative stage [3] | other results |
| --- | --- | --- | --- | --- | --- | --- | --- | --- | --- | --- | --- | --- | --- | --- | --- | --- |
| CC/C=C\C[C@H]1C(=O)CC[C@@H]1CC(=O)OC [MeJA, Methyl Jasmonate] | 1.76 | decreased | neither concentration of MeJA significantly altered | neither concentration of MeJA significantly altered | neither concentration of MeJA significantly altered | neither concentration of MeJA significantly altered | Significant increases | Significant increases | Significant increases | significantly decreased | significantly increased | significantly decreased | three out of four | three out of four | phytotoxic | β-myrcene, α-pinene, camphene, β-pinene and total terpene content ([2]; only with the higher concentration of 7.5 mM): significant reduction |
| CCCCCC1C(=O)CCC1CC(=O)OC (stereo not drawn) [MDJ, methyl dihydrojasmonate] | 2.53 | 17.2% | significantly lowered | significantly lowered | significantly lowered | significantly lowered | Significant increases | Significant increases | Significant increases | significantly decreased | significantly increased | significantly decreased | all four | all four | phytotoxic | alpha-humulene increase compared to the Control group ([1]; Treatment 1, 7.5 mM): 3.15%; beta-caryophyllene increase compared to the Control group ([1]; Treatment 1, 7.5 mM): 3.3%; guaiol increase compared to the Control group ([1]; Treatment 1, 7.5 mM): 5.66%; trans-nerolidol increase compared to the Control group ([1]; Treatment 1, 7.5 mM): 66.66%; β-myrcene content (CBDRx Cherry variety): significantly lowered; camphene [2, 4]: significantly lowered; p-pinene [2, 4]: significantly lowered; total terpene content [2, 4]: significantly lowered; α-pinene [2, 4]: significantly lowered; β-myrcene content [2, 4]: significantly lowered; plants deceased in 72 hours ([3]; root drench 10 mM): three out of four |

From patent publication US11638427B2, “Methods and compositions for altering secondary metabolites in plants” (Impello Biosciences, Inc, priority 2020, dated 2023)
